Laboratory results published in patent US20240116850A1, “COMPOSITIONS AND METHODS RELATED TO BICYCLO[2.2.1] HEPTANAMINE-CONTAINING COMPOUNDS” (The Broad Institute, Inc., priority 2020, published 2024).
“Also recorded” adds a separate entry of the source.

Tests used:
[1] = Equilibrium solubility in water and bio-relevant media (SGF, FaSSIF, FeSSIF); conditions: for Solubility (matrix of results from solid form characterization): summary grade Good/Moderate/Poor; for solubility: thermodynamic from solid
[2] = TGA and DSC thermal characterization of salts; format: physicochemical; conditions: summary grade Good/Moderate/Poor
Procedure: TGA data were collected using a TA Discovery5500/Q5000 TGA from TA Instruments. DSC was performed using a TA Discovery2500/Q2000 DSC from TA Instruments.

[3] = Physical and chemical stability on storage (LC-MS and XRPD); format: physicochemical; conditions: for decomposition or solid form change in stability assay / Stability (matrix of results from solid form characterization): 1 week stability assay; for Solid Form after storage (XRPD) / Stability: 25/60% RH; 40 C./75% RH; 1 week / Form change?: 1 week; for Stability: 25/60% RH; 40 C./75% RH; 1 week / Form change?: BRD4780 salt solid form, 25/60% RH and 40 C./75% RH; for Stability: 25/60% RH; 40 C./75% RH; 1 week: impurities estimated by LCMS by observation of the TIC; for Form change?: solid form change (XRPD); for Stability (matrix of results from solid form characterization): summary grade Good/Moderate/Poor
Procedure: To compare the physical/chemical stability of the salt candidates, approximate 10 mg of each solid sample was added to a 5-mL glass vial covered with Parafilm® with several pin-holes on it, and then stored under 25° C./60% RH and 40° C./75% RH. After one week storage, solids were taken out for LC-MS and XRPD test to evaluate physical and chemical stability.

[4] = Dynamic Vapor Sorption (DVS) hygroscopicity; format: physicochemical; conditions: for DVS (matrix of results from solid form characterization): summary grade Good/Moderate/Poor
Procedure: Dynamic Vapor Sorption (DVS) was measured via a SMS (Surface Measurement Systems) DVS Intrinsic. The relative humidity at 25° C. were calibrated against the deliquescence point of LiCl, Mg(NO3)2 and KCl.

[5] = Physical and chemical stability on storage (LC-MS and XRPD); format: physicochemical
physchem = conditions: thermodynamic from solid
[6] = Fasted State Simulated Intestinal Fluid (pH 6.5)
[7] = Fed State Simulated Intestinal Fluid (pH 5.0)
[8] = Simulated gastric fluid (pH 1.8)
[9] = water, HCl salt tested at 100 mg/mL, other salts at 50 mg/mL
[10] = fasted state simulated intestinal fluid (FaSSIF), pH 6.5, fassif, FaSSIF solubility, Fasted State Simulated Intestinal Fluid (pH 6.5)
[11] = fed state simulated intestinal fluid (FeSSIF), pH 5, fessif, FeSSIF solubility, Fed State Simulated Intestinal Fluid (pH 5.0)
[12] = simulated gastric fluid (SGF), pH 1.8, simulated gastric fluid, SGF solubility, Simulated gastric fluid (pH 1.8)
[13] = water, H2O solubility (mM; salt)
[14] = water, H2O solubility (mg/mL; salt), HCl salt tested at 100 mg/mL, other salts at 50 mg/mL

Row | pH ([1]; final solution in FaSSIF) | pH ([1]; final solution in FeSSIF) | pH ([1]; final solution in H2O) | pH ([1]; final solution in SGF) | Solubility (matrix of results from solid form characterization) [1] | TGA/DSC (matrix of results from solid form characterization) [2] | Solid Form after storage (XRPD) ([3]; 25° C./60% RH) | Solid Form after storage (XRPD) ([3]; 40° C./75% RH) | Stability: 25/60% RH; 40 C./75% RH; 1 week [3] | Form change? [3] | Stability (matrix of results from solid form characterization) [3] | DVS (% H2O uptake at 25 C./80% RH) ([4]; 80% RH) | DVS (% H2O uptake at 25 C./95% RH) [4] | hygroscopicity classification ([4]; DVS) | DVS (matrix of results from solid form characterization) [4] | solubility [1, 10] | solubility [1, 11] | solubility [1, 12] | solubility [1, 13] | Compound | decomposition or solid form change in stability assay [3] | also measured
1 | 6.0 | 4.8 | 4.5 | 1.8 | Good | Good | HCl salt Type A | HCl salt Type A | No significant impurities | No change | Good | 0.55% | 3.3% | slightly hygroscopic | Moderate |  |  |  |  | CC(C)C1C2CCC(C2)C1N.Cl (racemic) [HCl salt Type A, rac-3-exo-isopropylbicyclo[2.2.1]heptan-2-endo-amine hydrochloride, reference compound] | did not display decomposition or solid form change | FaSSIF solubility [1, 6]: >71 mg/mL; FeSSIF solubility [1, 7]: >75 mg/mL; SGF solubility [1, 8]: >77 mg/mL; H2O solubility (mM; salt) ([1]; water): >405.84 mM; H2O solubility (mg/mL; salt) [1, 9]: >77 mg/mL; H2O absorption ([4]; 80% RH): 0.55 wt %; H2O absorption ([4]; 90% RH): 3.3 wt %; new peak on LC-MS chromatogram after storage ([5]; 60° C. for 24 h): a new peak was observed; Solid Form after storage (XRPD) ([5]; 60° C., 24 h): HCl salt Type A
2 | 5.1 | 4.8 | 4.4 | 3.0 | Good | Poor | Phosphate Type A + B | Phosphate Type A + B | No significant impurities | Phosphate A | Poor | 1.18% | 5.8% | hygroscopic | Poor | > 29 mg/mL | > 27 mg/mL | > 32 mg/mL | > 163 mM | CC(C)[C@@H]1[C@H]2CC[C@H](C2)[C@H]1N (racemic) [Phosphate Type B] | form change observed | solubility [1, 14]: > 33 mg/mL; desorption of absorbed H2O ([4]; DVS): did not fully desorb
3 | 3.5 | 4.1 | 3.4 | 3.1 | Moderate | Good | Fumarate Type A | Fumarate Type A | No significant impurities | No change | Good | 0.15% | 0.16% | not hygroscopic | Good | 12.4 mg/mL | 17.1 mg/mL | 11.9 mg/mL | 44.6 mM | CC(C)[C@@H]1[C@H]2CC[C@H](C2)[C@H]1N.O=C(O)/C=C/C(=O)O [Fumarate Type A] | did not display decomposition or solid form change | XRPD after stirring in medium ([1]; 24 hours in FeSSIF): Additional peaks in the XRPD spectra were observed; solubility [1, 14]: 12.3 mg/mL
4 | 4.6 | 4.7 | 3.8 | 4.9 | Good | Good | Maleate Type A | Maleate Type A | No significant impurities | No change | Good | 0.02% | 0.07% | not hygroscopic | Good | > 27 mg/mL | > 26 mg/mL | > 28 mg/mL | > 92.8 mM | CC(C)[C@@H]1[C@H]2CC[C@H](C2)[C@H]1N.O=C(O)/C=C\C(=O)O [Maleate Type A] | did not display decomposition or solid form change | solubility [1, 14]: > 25 mg/mL
5 | 4.5 | 4.6 | 4.5 | 4.4 |  | Good | Succinate Type A + peaks | Succinate Type A | No significant impurities | New Peaks | Moderate | 0.08% | 0.67% | not hygroscopic | Good |  |  |  |  | CC(C)[C@@H]1[C@H]2CC[C@H](C2)[C@H]1N.O=C(O)CCC(=O)O [Succinate Type A] | new peaks observed | Solid Form after storage (XRPD) ([3]; 25° C./60% RH, listed as succinate Type A): new peaks were observed; solubility (physchem; pH 1.8, simulated gastric fluid, SGF solubility): > 28 mg/mL; solubility (physchem; pH 6.5, fassif, FaSSIF solubility): > 28 mg/mL; solubility (physchem; [13]): > 103 mM; solubility (physchem; water, H2O solubility (mg/mL; salt)): > 28 mg/mL

Row | Compound | pH ([1]; final solution in FaSSIF) | pH ([1]; final solution in FeSSIF) | pH ([1]; final solution in H2O) | pH ([1]; final solution in SGF) | Solubility (matrix of results from solid form characterization) [1] | TGA/DSC (matrix of results from solid form characterization) [2] | Solid Form after storage (XRPD) ([3]; 25° C./60% RH) | Solid Form after storage (XRPD) ([3]; 40° C./75% RH) | Stability: 25/60% RH; 40 C./75% RH; 1 week [3] | Form change? [3] | Stability (matrix of results from solid form characterization) [3] | DVS (% H2O uptake at 25 C./80% RH) ([4]; 80% RH) | DVS (% H2O uptake at 25 C./95% RH) [4] | hygroscopicity classification ([4]; DVS) | DVS (matrix of results from solid form characterization) [4] | solubility [1, 10] | solubility [1, 11] | solubility [1, 12] | solubility [1, 13] | decomposition or solid form change in stability assay [3] | also measured
6 | CC(C)[C@@H]1[C@H]2CC[C@H](C2)[C@H]1N [L-malate Type C] | 6.4 | 5.2 | 7.1 | 5.3 | Good | Poor | L-malate Type C | partly converted to L-malate Type B; also recorded: L-malate Type B + C | No significant impurities | Type B observed | Poor | 0.18% | 0.30% | not hygroscopic | Good |  |  |  |  | form change observed | FaSSIF solubility [1, 6]: >30 mg/mL; FeSSIF solubility [1, 7]: >32 mg/mL; SGF solubility [1, 8]: >33 mg/mL; H2O solubility (mM; salt) ([1]; water): >136.17 mM; H2O solubility (mg/mL; salt) [1, 9]: >39 mg/mL
